Source: ChEMBL document CHEMBL1148564, “Synthesis and interactions of 7-deoxy-, 10-deacetoxy, and 10-deacetoxy-7-deoxypaclitaxel with NCI/ADR-RES cancer cells and bovine brain microvessel endothelial cells” (Bioorg Med Chem Lett, 2006)

Legend:
Tubulin (Homo sapiens) [1] = biological target: T1, Tubulin (Homo sapiens) (UniProt P68371+Q9H4B7+P0DPH7+P68366+Q13509+Q71U36+P04350+Q3ZCM7+P07437+P68363+Q9BQE3+Q6PEY2+Q13885+Q9BVA1+Q9BUF5); experiment: Effect on tubulin polymerization by tubulin assembly assay relative to paclitaxel; format: protein-complex assay
MCF7 = experiment: Antiproliferative activity against MCF7 breast cancer cell line relative to paclitaxel; format: functional, Homo sapiens
Tubulin (Homo sapiens) [2] = biological target: T1, Tubulin (Homo sapiens); experiment: Antiproliferative activity against NCI/ADR-RES […] cancer cell line relative to paclitaxel; format: functional, cell-based

Compound	Ratio ED50 (Tubulin (Homo sapiens) [1])	Ratio ED50 (MCF7)	Ratio ED50 (Tubulin (Homo sapiens) [2])
CC(=O)O[C@@]12CO[C@@H]1C[C@H](O)[C@@]1(C)C(=O)CC3=C(C)[C@@H](OC(=O)[C@H](O)[C@@H](NC(=O)c4ccccc4)c4ccccc4)C[C@@](O)([C@@H](OC(=O)c4ccccc4)[C@H]21)C3(C)C	2.2	0.87	0.79
CC(=O)O[C@@]12CO[C@@H]1CC[C@@]1(C)C(=O)CC3=C(C)[C@@H](OC(=O)[C@H](O)[C@@H](NC(=O)c4ccccc4)c4ccccc4)C[C@@](O)([C@@H](OC(=O)c4ccccc4)[C@H]21)C3(C)C	2	9	0.21
CC(=O)O[C@H]1C(=O)[C@]2(C)CC[C@H]3OC[C@@]3(OC(C)=O)[C@H]2[C@H](OC(=O)c2ccccc2)[C@]2(O)C[C@H](OC(=O)[C@H](O)[C@@H](NC(=O)c3ccccc3)c3ccccc3)C(C)=C1C2(C)C	1.4	30	1
